For series [1] the following is noted: rcm bond, Hoveyda-Grubbs 1st generation catalyst, 80.0 °C.
Series [2] relates to HCV replicons (NS3-NS5B regions of HCV type 1b) in Huh-Luc cells. Kind of series: HCV replicon assay in Huh-7 luc/neo (Huh-Luc) cells, luciferase readout. The format is cell-based. As to conditions: Hepatitis C virus, Huh-7, 72 h, three days incubation, luciferase activity. An excerpt: The compounds of formula (I) were examined for activity in the inhibition of HCV RNA replication in a cellular assay. […] The cellular assay was based on a bicistronic expression construct, as described by Lohmann et al. (1999) Science vol. 285 pp. 110-113 with modifications described by Krieger et al. (2001) Journal of Virology 75: 4614-4624, in a multi-target screening strategy. In essence, the method was as follows.
The assay utilized the stably transfected cell line Huh-7 luc/neo (hereafter referred to as Huh-Luc). This cell line harbors an RNA encoding a bicistronic expression construct comprising the wild type NS3-NS5B regions of HCV type 1b translated from an Internal Ribosome Entry Site (IRES) from encephalomyocarditis virus (EMCV), preceded by a reporter portion (firefly luciferase), and a selectable marker portion (neo^R, neomycine phosphotransferase). The construct is bordered by 5′ and 3′ NTRs (non-translated regions) from HCV type 1b. Continued culture of the replicon cells in the presence of G418 (neo^R) is dependent on the replication of the HCV RNA. The stably transfected replicon cells that express HCV RNA, which replicates autonomously and to high levels, encoding inter alia luciferase, were used for screening the antiviral compounds.
The replicon cells were plated in 384 well plates in the presence of the test and control compounds which were added in various concentrations. Following an incubation of three days, HCV replication was measured by assaying luciferase activity (using standard luciferase assay substrates and reagents and a Perkin Elmer ViewLux™ ultraHTS microplate imager). […] The inhibitory activity of the compound on luciferase activity was monitored on the Huh-Luc cells, enabling a dose-response curve for each test compound. EC50 values were then calculated, which value represents the amount of the compound required to decrease the level of detected luciferase activity by 50%, or more specifically, the ability of the genetically linked HCV replicon RNA to replicate.
(In general: Replicon systems follow genome replication, usually without infectious particles.)

Read-outs that look alike come from different tables or passages of the source.

For three compounds, ring closure, isolated yield, ring closure, yield of all isomers and EC50 results are on record in patent US8524716B2, “Macrocyclic indoles as hepatitis C virus inhibitors” (priority 2007, dated 2013).

One may read the EC50 as the concentration giving half of the maximal effect.

In the case of `COc1ccc(-c2ccc(Cl)cc2)c(-c2ccc3cc(-c4c(C5CCCCC5)c5ccc6cc5n4CC(=O)NCCC=CCCNC6=O)ccc3n2)c1`, the ring closure, isolated yield (from C=CCCNC(=O)c1cc(C)c2c(C3CCCCC3)c(-c3ccc4nc(-c5cc(OC)ccc5-c5ccc(Cl)cc5)ccc4c3)n(C(=O)NCCC=C)c2c1, rcm bond, 15-membered ring, Hoveyda-Grubbs 1st gen (0.42 eq), DCE, 1.32 mM, 80.0 °C) came out at 30%. This compound also showed a ring closure, yield of all isomers in series [1] (from C=CCCNC(=O)Cn1c(-c2ccc3nc(-c4cc(OC)ccc4-c4ccc(Cl)cc4)ccc3c2)c(C2CCCCC2)c2ccc(C(=O)NCCC=C)cc21, DCE, 1.32 mM) of 30%.

In series [1] (from C=CCCNC(=O)Cn1c(-c2ccoc2)c(C2CCCCC2)c2ccc(C(=O)NCCC=C)cc21, 1,2-dichloroethane, 1.585 mM, 15.0 h), `O=C1Cn2c(-c3ccoc3)c(C3CCCCC3)c3ccc(cc32)C(=O)NCCC=CCCN1` had a ring closure, yield of all isomers of 22%.

With `COc1ccc(-c2c(C3CCCCC3)c3ccc4cc3n2CC(=O)NCCCCCN(C)S(=O)(=O)NC4=O)cc1` [Cpd 26, 18-Cyclohexyl-19-(4-methoxy-phenyl)-10-methyl-11,11-dioxo-11λ^6-thia-1,4,10,12-tetraaza-tricyclo[12.5.2.017,20]henicosa-14(21),15,17(20),18-tetraene-3,13-dione], for the setting “amide bond, 16-membered ring, CDI, CH3CN, 2 steps”, the ring closure, isolated yield came out at 31%. Also, in series [2], the EC50 turned out to be 0.35 µM.
